“Also recorded” adds a separate entry of the source.
Assays:
[1] = tested on: Timothy syndrome cardiomyocytes; test: Contraction assay with Matlab-based analysis and calcium imaging (Roscovitine analog and CDK inhibitor tests); assay type: cell-based, human; details: two rounds: cardiomyocyte clusters 24 hours, intact monolayer 2 hours after treatment; 5 μM, (R)-CR8 1 or 2 μM
Protocol: Two rounds of chemical tests were conducted to test the compounds. The first round of chemical test was conducted using Timothy syndrome cardiomyocyte clusters isolated from the monolayer cardiomyocytes to screen the compounds efficiently and to identify the positive compounds that could increase the spontaneous beating rate and decrease the contraction irregularity of the Timothy syndrome cardiomyocyte clusters (FIG. 1C).
The working solution of each compound was made by diluting the stock solution in our cardiomyocyte culture media to a final concentration of 5 μM except for (R)-CR8, which was diluted to a final concentration of 1 or 2 μM. The contraction analysis was performed as reported previously (Yazawa et al., 2011). The movies were taken before the treatment, and 24 hours after the treatment of each compound from the Timothy syndrome cardiomyocyte clusters isolated from the monolayer cardiomyocytes for the first round of test. The movies were taken before the treatment, and 2 hours after the treatment of each positive compound on the intact monolayer Timothy syndrome cardiomyocytes for the second round of test. The contraction rate and the irregularity of each sample before and after treatment were compared using paired Student t-test.

[2] = target: T1, CDK5/p35 (Homo sapiens, UniProt Q00535); test: In vitro kinase assay (ADP-Glo luminescence); assay type: biochemical; details: wild-type II-III loop or C-term of Cav1.2 as substrates
T1 construct: purchased Promega V3271
T1 sequence (Q00535 whole entry): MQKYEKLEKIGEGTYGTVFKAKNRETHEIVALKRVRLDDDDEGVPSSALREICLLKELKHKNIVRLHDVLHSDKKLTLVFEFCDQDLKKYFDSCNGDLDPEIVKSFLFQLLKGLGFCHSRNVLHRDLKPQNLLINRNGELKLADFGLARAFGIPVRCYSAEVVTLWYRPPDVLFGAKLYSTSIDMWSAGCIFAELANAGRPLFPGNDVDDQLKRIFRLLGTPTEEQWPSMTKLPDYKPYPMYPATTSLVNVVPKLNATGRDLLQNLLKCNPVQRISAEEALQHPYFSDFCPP
T1 sequence (Q15078 whole entry partner): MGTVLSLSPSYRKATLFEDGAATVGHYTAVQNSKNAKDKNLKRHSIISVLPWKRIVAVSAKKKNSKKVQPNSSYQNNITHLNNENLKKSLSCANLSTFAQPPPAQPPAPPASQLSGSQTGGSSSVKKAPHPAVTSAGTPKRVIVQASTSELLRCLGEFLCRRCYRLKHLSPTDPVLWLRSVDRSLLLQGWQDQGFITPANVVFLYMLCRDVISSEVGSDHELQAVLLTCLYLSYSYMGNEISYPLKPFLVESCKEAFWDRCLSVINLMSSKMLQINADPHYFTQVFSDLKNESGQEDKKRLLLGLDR
From the text: To determine whether CDK5 phosphorylates Cav1.2, an in vitro kinase assay was designed. The wild-type II-III loop or the C-term of Cav1.2 was used as the substrates in this assay. Mutant II-III loop and mutant C-term constructs were generated with substitutions of serine/threonine to glycine or alanine in all CDK5 consensus sequences as negative controls. The phosphorylation of the substrates by CDK5 consumes ATP and produces ADP, which is then converted into luminescence by detection reagents in the assay (FIG. 3D). The luminescence signal was reduced when the CDK5 inhibitor, PHA-793887 was added to the reactions using wild-type II-III loop or C-term as the substrates. […]
To prepare the substrates, the HEK 293T cells were transfected with the plasmid containing either the FLAG-tagged wild-type II-III loop or mutant II-III loop or wild-type C-terminus or mutant C-terminus using Lipofectamine 2000 (Thermo Fisher Scientific) following the manufacturer's protocol 24 hours after plating. […] A series of samples for a standard curve were prepared based on the manufacturer's instructions to determine the ATP-ADP conversion from the luminescence signals in every round of experiment. […] 20 ul of the samples from each tube was then transferred into a 96 well microplate and the luminescence was measured with the GloMax® 96 Microplate Luminometer (Promega).

[3] = tested on: Cav1.2 with Timothy syndrome mutation; details: heterologous over-expression system; cited from earlier work
[4] = tested on: Cav1.2 channels; test: Voltage-clamp recordings of Ba2+ currents (voltage-dependent inactivation of Cav1.2); assay type: cell-based, human; details: TS cardiomyocytes with CDK5 DN expression; 5 μM, 3 min
Protocol: The Timothy syndrome and control iPSCs were differentiated into cardiomyocytes following a protocol reported previously (Song et al., 2015) and infected with the lentiviruses at day 19-21 or day 25-27 after cardiac differentiation. The cardiomyocytes were dissociated into single cells for whole-cell patch-clamp recordings at day 31. Whole-cell patch-clamp recordings of iPSC-derived cardiomyocytes were conducted using a MultiClap 700B patch-clamp amplifier (Molecular Devices) and an inverted microscope equipped with differential interface optics (Nikon, Ti-U). The glass pipettes were prepared using borosilicate glass (Sutter Instrument, BF150-110-10) using a micropipette puller (Sutter Instrument, Model P-97). Voltage-clamp measurements were conducted using an extracellular solution consisting of 5 mM BaCl2, 160 mM TEA and 10 mM HEPES (pH7.4 at 25° C.) and a pipette solution of 125 mM CsCl, 0.1 mM CaCl2, 10 mM EGTA, 1 mM MgCl2, 4 mM MgATP and 10 mM HEPES (pH 7.4 with CsOH at 25° C.). Two pulse protocols were used. One protocol was that cells were held at −90 mV and then depolarized to −10 mV for 400 ms at a rate of 0.1 Hz for the Ba^2+ current recordings. […] Recorded action potentials were analyzed using Clampfit 10.4 (Axon Instruments).

[5] = tested on: TS cardiomyocytes derived from hiPSCs; details: high dose; cited from earlier work
[6] = withdrawn from US market in 2000; cited from earlier work

Compound: CC[C@H](CO)Nc1nc(NCc2ccc(-c3ccccn3)cc2)c2ncn(C(C)C)c2n1 [CR8]
- effects on Timothy syndrome cardiomyocytes (spontaneous beating rate, contraction irregularity) [1]: beneficial effects

Compound: COc1ccc(CNc2nc(NCc3ccc(OC)cc3)c3ncn(C4CCCCC4)c3n2)cc1 [Myoseverin B]
- effects on Timothy syndrome cardiomyocytes (spontaneous beating rate, contraction irregularity) [1]: beneficial effects

Compound: CC(C)CC(=O)Nc1[nH]nc2c1CN(C(=O)C1CCN(C)CC1)C2(C)C [PHA-793887]
- effects on Timothy syndrome cardiomyocytes (spontaneous beating rate, contraction irregularity) [1]: beneficial effects
- luminescence signal (phosphorylation of substrate by CDK5) [2]: reduced; also recorded: blocked the phosphorylation

Compound: CC[C@H](CO)Nc1nc(NCc2ccccc2)c2ncn(C(C)C)c2n1 [Roscovitine]
- voltage-dependent inactivation of Cav1.2 with Timothy syndrome mutation [3]: enhance the voltage-dependent inactivation
- voltage-dependent inactivation of Cav1.2 [4]: did not further enhance; also recorded: did not significantly enhance
- cardiac phenotypes of TS cardiomyocytes [5]: rescue the cardiac phenotypes

Compound: COc1cc(N)c(Cl)cc1C(=O)NC1CCN(CCCOc2ccc(F)cc2)CC1OC (centres unmarked) [cisapride]
- side effect [6]: QT prolongation
